Legend:
PI3Kδ = PI3Kδ (Homo sapiens (Human), UniProt O00329); experiment: PI3Kδ enzymatic inhibitory activity IC50 assay (Caliper Reader); format: biochemical
Procedure: (§1) Biological Effect Example 1 PI3Kα and PI3Kδ Enzymatic Inhibitory Activity IC50 Assay • 1. Buffer preparation: 50 mM HEPES, pH 7.5, 3 mM MgCl2, 1 mM EGTA, 100 mM NaCl, 0.03% CHAPS. • 2. Compound was formulated in 100% DMSO in a concentration gradient, deposited to a 384-well plate to make final DMSO concentration of 1%. • 3. PI3Kα and PI3Kδ enzymes were diluted to be the optimum concentration with the following buffer: 50 mM HEPES, pH 7.5, 3 mM MgCl2, 1 mM EGTA, 100 mM NaCl, 0.03% CHAPS, 2 mM DTT. Transferred to a 384-well plate and incubated with the compound for a certain time. • 4. […] The reaction was performed in a 384-well plate for 1 h at room temperature for PI3Kα and 2 hrs at room temperature for PI3Kδ. • 5. Read the conversion rate using Caliper Reader, and calculate the inhibition rate as the average of two tests.

U87-MG = experiment: Cell proliferation inhibition assay (MTT), U87-MG; format: cell-based; settings: 72 hrs
Procedure: (§2) Cancer cell lines (A549, PC3, or […]) in the logarithmic growth phase were plated at a density of about 3,000 per well in 96-well plates, 90 μL/well, using double wells for each concentration. Control wells containing corresponding concentration of vehicle and without cells were also prepared. After 24 hrs, positive control compound and example compounds were added to make 10 μL/well and final DMSO concentration of 0.5%. The cells were incubated with compounds for 72 hrs in the presence of 10% Invitrogen fetal bovine serum, 37° C., 5% CO2. 5 mg/mL MTT solution was added to make 10 μL/well, and incubated for 4 hours at 37° C. A ddH2O solution (10% SDS, 5% isobutanol, 10 mmol/L HCl) was added to make 100 μL/well and incubated overnight at 37° C.

PC3 = experiment: Cell proliferation inhibition assay (MTT), PC3; format: cell-based; settings: 72 hrs
Procedure: as §2

A549 = experiment: Cell proliferation inhibition assay (MTT), A549; format: cell-based; settings: 72 hrs
Procedure: as §2

PI3Kα = PI3Kα (Homo sapiens (Human), UniProt P42336); experiment: PI3Kα enzymatic inhibitory activity IC50 assay (Caliper Reader); format: biochemical
Chain of PI3Kα (P42336 whole entry): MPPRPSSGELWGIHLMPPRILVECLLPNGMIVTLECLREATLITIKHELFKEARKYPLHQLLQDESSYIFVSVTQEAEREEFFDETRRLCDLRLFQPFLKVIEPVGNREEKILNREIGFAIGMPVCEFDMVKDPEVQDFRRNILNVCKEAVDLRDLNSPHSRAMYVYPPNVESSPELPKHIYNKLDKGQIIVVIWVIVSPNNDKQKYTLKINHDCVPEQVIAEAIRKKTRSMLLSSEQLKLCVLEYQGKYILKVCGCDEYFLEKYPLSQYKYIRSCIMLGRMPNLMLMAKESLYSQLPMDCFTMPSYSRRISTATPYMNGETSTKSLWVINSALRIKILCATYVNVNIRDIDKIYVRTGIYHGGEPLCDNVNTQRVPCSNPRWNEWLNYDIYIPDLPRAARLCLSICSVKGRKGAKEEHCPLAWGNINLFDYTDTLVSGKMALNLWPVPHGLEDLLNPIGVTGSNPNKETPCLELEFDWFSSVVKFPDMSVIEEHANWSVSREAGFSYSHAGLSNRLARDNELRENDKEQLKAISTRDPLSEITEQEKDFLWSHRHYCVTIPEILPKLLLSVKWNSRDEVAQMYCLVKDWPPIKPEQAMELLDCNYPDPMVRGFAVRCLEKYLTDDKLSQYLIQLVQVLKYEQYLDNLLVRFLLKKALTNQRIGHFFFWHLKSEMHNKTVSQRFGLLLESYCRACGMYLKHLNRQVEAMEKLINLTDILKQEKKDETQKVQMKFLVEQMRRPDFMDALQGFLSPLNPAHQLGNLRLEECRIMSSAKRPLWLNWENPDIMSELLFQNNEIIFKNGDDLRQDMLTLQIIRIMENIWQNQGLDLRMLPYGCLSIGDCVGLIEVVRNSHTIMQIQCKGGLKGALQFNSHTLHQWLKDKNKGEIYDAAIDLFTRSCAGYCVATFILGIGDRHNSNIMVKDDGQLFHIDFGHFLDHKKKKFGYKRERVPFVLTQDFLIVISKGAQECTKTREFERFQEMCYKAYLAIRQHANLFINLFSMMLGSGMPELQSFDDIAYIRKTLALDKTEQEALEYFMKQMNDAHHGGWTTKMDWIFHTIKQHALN
Chain of PI3Kα (P27986 whole entry partner): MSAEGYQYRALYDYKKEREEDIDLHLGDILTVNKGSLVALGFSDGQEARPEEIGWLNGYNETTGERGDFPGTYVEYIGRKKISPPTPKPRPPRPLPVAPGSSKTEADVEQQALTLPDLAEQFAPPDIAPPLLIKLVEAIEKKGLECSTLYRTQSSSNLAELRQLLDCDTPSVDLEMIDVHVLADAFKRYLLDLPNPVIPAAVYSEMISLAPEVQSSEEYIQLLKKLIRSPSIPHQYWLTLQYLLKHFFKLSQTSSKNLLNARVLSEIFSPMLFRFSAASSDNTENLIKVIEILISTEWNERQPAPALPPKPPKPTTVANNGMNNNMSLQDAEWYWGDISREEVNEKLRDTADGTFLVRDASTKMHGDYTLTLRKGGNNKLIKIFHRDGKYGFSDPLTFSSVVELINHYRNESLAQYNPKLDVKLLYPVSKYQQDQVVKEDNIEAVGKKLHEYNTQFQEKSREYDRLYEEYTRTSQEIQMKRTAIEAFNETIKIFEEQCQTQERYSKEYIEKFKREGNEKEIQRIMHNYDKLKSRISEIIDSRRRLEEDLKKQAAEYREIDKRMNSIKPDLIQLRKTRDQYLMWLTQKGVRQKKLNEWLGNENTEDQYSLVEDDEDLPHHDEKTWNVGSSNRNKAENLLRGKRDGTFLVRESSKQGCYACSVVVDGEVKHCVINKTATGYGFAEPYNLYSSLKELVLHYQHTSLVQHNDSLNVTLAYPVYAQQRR
Procedure: as §1

[1] = test system: malignant glioma cell U87MG xenograft; experiment: Growth inhibition of malignant glioma cell U87MG xenograft in nude mice; format: in vivo; settings: for TGI: 20 days; for Tumor size D 0: day 0; for Tumor size D 20: day 20
Procedure: (§3) Groups of nude mice were implanted subcutaneously in the right hind back with 4×10^6 U87MG cells. Start dosing when mean tumor volume reached approximately 150 (100-200) mm^3. Grouping method: before dosing, animals were weighted, tumor sizes were measured, and randomized according to the tumor size (randomized block design), 8 mice per group. A solvent (0.5% CMC-Na+0.2% Tween-80) was dosed once daily by oral gavage for solvent control group, and pre-determined dose of test compound was dosed once daily by oral gavage for a dosing group, for 20 consecutive days.
(§4) Tumor diameters were measured twice a week with a vernier caliper. Tumor volume was calculated with formula: V=0.5a×b^2, a and b represent longer and shorter diameter of tumor. […] Meanwhile, the weight of nude mice in each group was weighed twice weekly for a preliminary evaluation of compound toxicity.

[2] = Body weight of nude mice in the U87MG xenograft study, preliminary evaluation of compound toxicity; format: in vivo; settings: for Body weight D 0: day 0; for Body weight D 20: day 20
Procedure: as §3, §4

[3] = 20 mg/kg once daily oral gavage
[4] = 50 mg/kg once daily oral gavage
[5] = 150 mg/kg once daily oral gavage
[6] = 25 mg/kg once daily oral gavage

Chain of PI3Kδ (O00329 whole entry): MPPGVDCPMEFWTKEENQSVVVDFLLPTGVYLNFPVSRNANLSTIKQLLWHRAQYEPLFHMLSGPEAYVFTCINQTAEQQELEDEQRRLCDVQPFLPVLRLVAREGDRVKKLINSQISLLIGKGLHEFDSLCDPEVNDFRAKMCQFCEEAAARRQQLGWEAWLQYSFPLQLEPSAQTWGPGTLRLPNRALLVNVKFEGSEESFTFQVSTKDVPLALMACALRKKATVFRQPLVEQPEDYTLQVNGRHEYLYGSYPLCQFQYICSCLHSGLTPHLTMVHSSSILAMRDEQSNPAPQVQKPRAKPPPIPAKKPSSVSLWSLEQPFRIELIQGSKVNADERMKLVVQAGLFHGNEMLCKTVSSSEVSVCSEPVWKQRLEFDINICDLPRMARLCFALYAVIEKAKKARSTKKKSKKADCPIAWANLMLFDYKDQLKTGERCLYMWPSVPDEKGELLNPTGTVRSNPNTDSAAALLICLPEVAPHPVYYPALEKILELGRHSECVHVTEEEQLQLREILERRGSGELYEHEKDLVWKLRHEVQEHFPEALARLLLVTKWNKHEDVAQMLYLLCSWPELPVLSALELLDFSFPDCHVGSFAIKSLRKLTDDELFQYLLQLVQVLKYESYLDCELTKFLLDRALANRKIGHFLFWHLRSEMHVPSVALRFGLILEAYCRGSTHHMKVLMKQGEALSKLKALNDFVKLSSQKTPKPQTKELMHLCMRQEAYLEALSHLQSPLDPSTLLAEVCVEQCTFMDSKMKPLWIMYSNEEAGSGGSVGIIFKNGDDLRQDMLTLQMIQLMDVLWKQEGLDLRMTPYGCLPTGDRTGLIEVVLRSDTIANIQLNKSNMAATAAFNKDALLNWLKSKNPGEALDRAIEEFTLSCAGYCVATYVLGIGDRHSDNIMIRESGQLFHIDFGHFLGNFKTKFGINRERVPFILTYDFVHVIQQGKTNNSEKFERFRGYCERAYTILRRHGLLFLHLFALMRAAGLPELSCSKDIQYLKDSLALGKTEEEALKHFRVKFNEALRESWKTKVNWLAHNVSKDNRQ
Chain of PI3Kδ (P27986 whole entry partner): as the sequence (P27986 whole entry partner) above

SMILES	IC50 (PI3Kδ) [nM]	IC50 (U87-MG) [nM]	IC50 (PC3) [nM]	IC50 (A549) [nM]	IC50 (PI3Kα) [nM]	also measured
CS(=O)(=O)N1CCN(Cc2csc3c(-c4cccc5[nH]ncc45)nc(N4CCOCC4)nc23)CC1 [Compound 6]	62	7410	6110	4640	57	
CS(=O)(=O)N1CCN(Cc2csc3c(-c4ccc(N)nc4)nc(N4CCOCC4)nc23)CC1 [Compound 12]	190				232	
CS(=O)(=O)N1CCN(Cc2csc3c(-c4cccc(O)c4)nc(N4CCOCC4)nc23)CC1 [Compound 13]	327				265	
CS(=O)(=O)N1CCN(Cc2csc3c(-c4cncnc4)nc(N4CCOCC4)nc23)CC1 [Compound 15]	200				104	
CC(C)(O)C1CCN(Cc2csc3c(-c4cnc(N)nc4)nc(N4CCOCC4)nc23)CC1 [Compound 17]	65.4	7810	5390	4820	245	
C[C@@H](O)C(=O)N1CCN(Cc2csc3c(-c4cnc(N)nc4)nc(N4CCOCC4)nc23)CC1 [Compound 19]	31.9	8080	2610	3990	51.4	
Cc1nc(N)ncc1-c1nc(N2CCOCC2)nc2c(CN3CCN(C(=O)[C@H](C)O)CC3)csc12 [Compound 22]	11				77	
C[C@@H](O)C(=O)N1CCN(Cc2csc3c(-c4cccc5[nH]ncc45)nc(N4CCOCC4)nc23)CC1 [Compound 23]	16				202	
Cc1sc2c(-c3cnc(N)nc3)nc(N3CCOCC3)nc2c1CN1CCN(C(=O)[C@H](C)O)CC1 [Compound 24]	8.3	9360	2070	2740	18.9	
Cc1sc2c(-c3cnc(N)nc3)nc(N3CCOCC3)nc2c1CN1CCN(C(=O)[C@@H](C)O)CC1 [Compound 25]	13	11300	3060	6680	56	
O=C(CO)N1CCN(Cc2csc3c(-c4cccc5[nH]ncc45)nc(N4CCOCC4)nc23)CC1 [Compound 26]	41	19700	3280	9330	141	
C[C@H](O)C(=O)N1CCN(Cc2csc3c(-c4cccc5[nH]ncc45)nc(N4CCOCC4)nc23)CC1 [Compound 27]	18				76	
Cc1sc2c(-c3cnc(N)nc3)nc(N3CCOCC3)nc2c1CN1CCN(C(=O)CO)CC1 [Compound 29]	7	3740	1490	2700	18	TGI [1, 3]: 88.38%; Tumor size D 0 [1, 3]: 148.62 mm^3; Tumor size D 20 [1, 3]: 232.84 mm^3; TGI [1, 4]: 102.88%; Tumor size D 0 [1, 4]: 151.36 mm^3; Tumor size D 20 [1, 4]: 130.48 mm^3; TGI [1, 5]: 113.86%; Tumor size D 0 [1, 5]: 148.16 mm^3; Tumor size D 20 [1, 5]: 47.70 mm^3; ability to inhibit tumor growth compared with GDC-0941 (in words) ([1]; U87MG xenograft in nude mice): significantly better than GDC-0941; in vivo anti-tumor activity (in words) ([1]; U87MG xenograft in nude mice): strong in vivo anti-tumor activity; Body weight D 0 [2, 3]: 22.40 g; Body weight D 20 [2, 3]: 22.69 g; Body weight D 0 [2, 4]: 22.21 g; Body weight D 20 [2, 4]: 21.99 g; Body weight D 0 [2, 5]: 22.76 g; Body weight D 20 [2, 5]: 20.62 g; tolerability / toxic side effects (in words) ([2]; high dose (150 mg/kg)): the tested mice can still torelate even the high dose
Cc1sc2c(-c3cccc4[nH]ncc34)nc(N3CCOCC3)nc2c1CN1CCN(S(C)(=O)=O)CC1 [Compound 30]	60.4				262	
Cc1sc2c(-c3cnc(N)nc3)nc(N3CCOCC3)nc2c1CN1CCN(CCO)CC1 [Compound 36]	56				157	
CS(=O)(=O)N1CCN(Cc2cc3nc(-c4cccc5[nH]ncc45)nc(N4CCOCC4)c3s2)CC1 [GDC-0941, reference compound]						TGI [1, 6]: 57.65%; Tumor size D 0 [1, 6]: 149.86 mm^3; Tumor size D 20 [1, 6]: 456.64 mm^3; TGI [1, 4]: 66.07%; Tumor size D 0 [1, 4]: 150.72 mm^3; Tumor size D 20 [1, 4]: 396.57 mm^3; Body weight D 0 [2, 6]: 22.24 g; Body weight D 20 [2, 6]: 23.64 g; Body weight D 0 [2, 4]: 22.47 g; Body weight D 20 [2, 4]: 23.57 g

Further compounds by falling IC50 (PI3Kα), results first:

IC50 (PI3Kδ) [nM]	IC50 (U87-MG) [nM]	IC50 (PC3) [nM]	IC50 (A549) [nM]	IC50 (PI3Kα) [nM]	SMILES	also measured
52				46.2	CC(C)(O)C(=O)N1CCN(Cc2csc3c(-c4cnc(N)nc4)nc(N4CCOCC4)nc23)CC1 [Compound 20]	
4.7				35	Cc1nc(N)ncc1-c1nc(N2CCOCC2)nc2c(CN3CCN(C(=O)[C@H](C)O)CC3)csc12 [Compound 21]	
				32	CN(Cc1csc2c(-c3cnc(N)nc3)nc(N3CCOCC3)nc12)C(=O)CO [Compound 32]	
290				26	Nc1ncc(-c2nc(N3CCOCC3)nc3ccoc23)cn1 [Compound 31]	
38	4460	1940	2600	24	Nc1ncc(-c2nc(N3CCOCC3)nc3c(CN4CCN(C(=O)CO)CC4)csc23)cn1 [Compound 28]	
28.3	12200	10100	6440	13.1	Cc1nc(N)ncc1-c1nc(N2CCOCC2)nc2c(CN3CCN(S(C)(=O)=O)CC3)csc12 [Compound 11]	
12.6	8870	2310	3640	12	C[C@H](O)C(=O)N1CCN(Cc2csc3c(-c4cnc(N)nc4)nc(N4CCOCC4)nc23)CC1 [Compound 18]	
